# Experimental data taken from patent US8440710B2, “HSL inhibitors useful in the treatment of diabetes” (Hoffmann-La Roche Inc., priority 2009, dated 2013).
# Molecular target: T1, human HSL (Homo sapiens, UniProt Q05469)
# T1 construct: generate a full length human HSL ORF with a 3′-His6 tag; made in house; host or cells: High 5 insect cells (baculovirus, pFast-BAC)
# T1 sequence (Q05469 1-1076): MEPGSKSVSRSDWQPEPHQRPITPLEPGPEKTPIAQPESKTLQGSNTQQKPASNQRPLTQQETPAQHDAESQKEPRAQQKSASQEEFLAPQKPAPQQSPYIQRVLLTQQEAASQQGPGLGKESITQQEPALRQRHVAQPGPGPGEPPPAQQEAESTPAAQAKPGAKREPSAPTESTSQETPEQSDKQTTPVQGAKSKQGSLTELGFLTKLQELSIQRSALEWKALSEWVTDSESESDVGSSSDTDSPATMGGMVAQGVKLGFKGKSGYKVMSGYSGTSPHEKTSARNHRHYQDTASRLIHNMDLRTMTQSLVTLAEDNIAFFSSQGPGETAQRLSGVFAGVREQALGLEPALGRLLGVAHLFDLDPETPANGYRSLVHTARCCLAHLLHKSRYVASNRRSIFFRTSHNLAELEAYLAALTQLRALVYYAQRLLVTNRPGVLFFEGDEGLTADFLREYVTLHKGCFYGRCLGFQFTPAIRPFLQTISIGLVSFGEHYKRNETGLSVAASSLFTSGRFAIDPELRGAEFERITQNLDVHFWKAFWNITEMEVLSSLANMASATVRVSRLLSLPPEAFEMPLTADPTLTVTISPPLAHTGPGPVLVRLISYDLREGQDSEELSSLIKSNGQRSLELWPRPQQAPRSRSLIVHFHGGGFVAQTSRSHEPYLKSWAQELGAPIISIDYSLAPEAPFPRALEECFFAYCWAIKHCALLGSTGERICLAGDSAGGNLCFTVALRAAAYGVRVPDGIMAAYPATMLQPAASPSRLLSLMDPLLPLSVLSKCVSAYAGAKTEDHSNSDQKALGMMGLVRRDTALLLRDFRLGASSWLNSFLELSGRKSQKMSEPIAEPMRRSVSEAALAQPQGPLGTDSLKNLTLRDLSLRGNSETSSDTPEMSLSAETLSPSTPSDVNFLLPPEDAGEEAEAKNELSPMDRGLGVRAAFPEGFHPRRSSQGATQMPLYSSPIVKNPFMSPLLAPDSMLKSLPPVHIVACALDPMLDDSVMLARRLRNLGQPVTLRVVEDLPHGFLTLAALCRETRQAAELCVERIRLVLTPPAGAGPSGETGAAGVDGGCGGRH
# Experiment: Human Hormone-Sensitive Lipase (HSL) enzyme inhibition assay (colorimetric, DMPT substrate)
# Assay type: biochemical
# Settings: human full length HSL-His6, 2,3-dimercapto-1-propanol tributyrate substrate, 37° C. 20 minutes, absorbance at 405 nm; read-out: HSL hum IC50
# Method in brief: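 Full-length human HSL with C-terminal His6, expressed in baculovirus-infected High 5 cells and Ni-NTA purified, was added (15 ug/ml stock) to 1.5 mM DMPT in 100 mM MOPS pH 7.2, 0.2 mg/ml fatty acid-free BSA containing compound. After 20 min at 37 °C, DTNB with SDS/Triton X-100 was added; A405 read after 15 min at RT.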
row,SMILES,IC50
1,"O=C1N(c2ccc(OCC(F)(F)F)nc2)CC[C@]12CC[C@@](O)(COCC(F)(F)F)CC2 [Example 279, (5α,8α)-8-Hydroxy-8-(2,2,2-trifluoro-ethoxymethyl)-2-[6-(2,2,2-trifluoro-ethoxy)-pyridin-3-yl]-2-aza-spiro[4.5]decan-1-one]",20 nM
2,"C[C@H](Oc1ccc(N2CC[C@]3(CC[C@](O)(COCC(F)(F)F)CC3)C2=O)cn1)C(F)(F)F [Example 280, (5α,8β)-8-Hydroxy-8-(2,2,2-trifluoro-ethoxymethyl)-2-[6-((S)-2,2,2-trifluoro-1-methyl-ethoxy)-pyridin-3-yl]-2-aza-spiro[4.5]decan-1-one]",980 nM
3,"C[C@H](Oc1ccc(N2CC[C@]3(CC[C@@](O)(COCC(F)(F)F)CC3)C2=O)cn1)C(F)(F)F [Example 281, (5α,8α)-8-Hydroxy-8-(2,2,2-trifluoro-ethoxymethyl)-2-[6-((S)-2,2,2-trifluoro-1-methyl-ethoxy)-pyridin-3-yl]-2-aza-spiro[4.5]decan-1-one]",10 nM
4,"O=C1N(c2ccc(CC(F)(F)F)cc2)CC[C@]12CC[C@](O)(COCC(F)(F)F)CC2 [Example 286, (5α,8β)-8-Hydroxy-8-(2,2,2-trifluoro-ethoxymethyl)-2-[4-(2,2,2-trifluoro-ethyl)-phenyl]-2-aza-spiro[4.5]decan-1-one]",190 nM
5,"O=C1N(c2ccc(CC(F)(F)F)cc2)CC[C@]12CC[C@@](O)(COCC(F)(F)F)CC2 [Example 287, (5α,8α)-8-Hydroxy-8-(2,2,2-trifluoro-ethoxymethyl)-2-[4-(2,2,2-trifluoro-ethyl)-phenyl]-2-aza-spiro[4.5]decan-1-one]",10 nM
6,"CC(C)CCOC[C@]1(O)CC[C@]2(CCN(c3ccc(OCC(F)(F)F)cc3)C2=O)CC1 [Example 291, (5α,8α)-8-Hydroxy-8-(3-methyl-butoxymethyl)-2-[4-(2,2,2-trifluoro-ethoxy)-phenyl]-2-aza-spiro[4.5]decan-1-one]",20 nM
7,"O=C1N(c2ccc(OCC(F)(F)F)nc2)CC[C@]12CC[C@@](O)(COCC(F)F)CC2 [Example 295, (5α,8α)-8-(2,2-Difluoro-ethoxymethyl)-8-hydroxy-2-[6-(2,2,2-trifluoro-ethoxy)-pyridin-3-yl]-2-aza-spiro[4.5]decan-1-one]",40 nM
8,"C[C@H](Oc1ccc(N2CC[C@]3(CC[C@](O)(COCC(F)F)CC3)C2=O)cn1)C(F)(F)F [Example 296, (5α,8β)-8-(2,2-Difluoro-ethoxymethyl)-8-hydroxy-2-[6-((S)-2,2,2-trifluoro-1-methyl-ethoxy)-pyridin-3-yl]-2-aza-spiro[4.5]decan-1-one]",550 nM
9,"C[C@H](Oc1ccc(N2CC[C@]3(CC[C@@](O)(COCC(F)F)CC3)C2=O)cn1)C(F)(F)F [Example 297, (5α,8α)-8-(2,2-Difluoro-ethoxymethyl)-8-hydroxy-2-[6-((S)-2,2,2-trifluoro-1-methyl-ethoxy)-pyridin-3-yl]-2-aza-spiro[4.5]decan-1-one]",20 nM
10,"O=C1N(c2ccc(CC(F)(F)F)cc2)CC[C@]12CC[C@](O)(COCC(F)F)CC2 [Example 302, (5α,8β)-8-(2,2-Difluoro-ethoxymethyl)-8-hydroxy-2-[4-(2,2,2-trifluoro-ethyl)-phenyl]-2-aza-spiro[4.5]decan-1-one]",510 nM
11,"O=C1N(c2ccc(CC(F)(F)F)cc2)CC[C@]12CC[C@@](O)(COCC(F)F)CC2 [Example 303, (5α,8α)-8-(2,2-Difluoro-ethoxymethyl)-8-hydroxy-2-[4-(2,2,2-trifluoro-ethyl)-phenyl]-2-aza-spiro[4.5]decan-1-one]",10 nM

# Next, values leading:
row,IC50,SMILES
1,400 nM,"C[C@H](Oc1ccc(N2CC[C@]3(CC[C@](O)(COCC(F)(F)F)CC3)C2=O)cc1)C(F)(F)F [Example 282, (5α,8β)-8-Hydroxy-8-(2,2,2-trifluoro-ethoxymethyl)-2-[4-((S)-2,2,2-trifluoro-1-methyl-ethoxy)-phenyl]-2-aza-spiro[4.5]decan-1-one]"
2,10 nM,"C[C@H](Oc1ccc(N2CC[C@]3(CC[C@@](O)(COCC(F)(F)F)CC3)C2=O)cc1)C(F)(F)F [Example 283, (5α,8α)-8-Hydroxy-8-(2,2,2-trifluoro-ethoxymethyl)-2-[4-((S)-2,2,2-trifluoro-1-methyl-ethoxy)-phenyl]-2-aza-spiro[4.5]decan-1-one]"
3,360 nM,"C[C@@H](Oc1ccc(N2CC[C@]3(CC[C@](O)(COCC(F)(F)F)CC3)C2=O)cc1)C(F)(F)F [Example 284, (5α,8β)-8-Hydroxy-8-(2,2,2-trifluoro-ethoxymethyl)-2-[4-((R)-2,2,2-trifluoro-1-methyl-ethoxy)-phenyl]-2-aza-spiro[4.5]decan-1-one]"
4,10 nM,"C[C@@H](Oc1ccc(N2CC[C@]3(CC[C@@](O)(COCC(F)(F)F)CC3)C2=O)cc1)C(F)(F)F [Example 285, (5α,8α)-8-Hydroxy-8-(2,2,2-trifluoro-ethoxymethyl)-2-[4-((R)-2,2,2-trifluoro-1-methyl-ethoxy)-phenyl]-2-aza-spiro[4.5]decan-1-one]"
5,800 nM,"O=C1N(c2ccc(C3CC3)cc2)CC[C@]12CC[C@](O)(COCC(F)(F)F)CC2 [Example 288, (5α,8β)-2-(4-Cyclopropyl-phenyl)-8-hydroxy-8-(2,2,2-trifluoro-ethoxymethyl)-2-aza-spiro[4.5]decan-1-one]"
6,20 nM,"O=C1N(c2ccc(C3CC3)cc2)CC[C@]12CC[C@@](O)(COCC(F)(F)F)CC2 [Example 289, (5α,8α)-2-(4-Cyclopropyl-phenyl)-8-hydroxy-8-(2,2,2-trifluoro-ethoxymethyl)-2-aza-spiro[4.5]decan-1-one]"
7,20 nM,"O=C1N(c2ccc(OCC(F)(F)F)cc2)CC[C@]12CC[C@@](O)(COCCC1CC1)CC2 [Example 290, (5α,8α)-8-(2-Cyclopropyl-ethoxymethyl)-8-hydroxy-2-[4-(2,2,2-trifluoro-ethoxy)-phenyl]-2-aza-spiro[4.5]decan-1-one]"
8,10 nM,"CC(OC[C@]1(O)CC[C@]2(CCN(c3ccc(OCC(F)(F)F)cc3)C2=O)CC1)C(F)(F)F (stereo partly drawn) [Example 292, (5α,8α)-8-Hydroxy-2-[4-(2,2,2-trifluoro-ethoxy)-phenyl]-8-(2,2,2-trifluoro-1-methyl-ethoxymethyl)-2-aza-spiro[4.5]decan-1-one]"
9,20 nM,"CSC[C@]1(O)CC[C@]2(CCN(c3ccc(OCC(F)(F)F)cc3)C2=O)CC1 [Example 293, (5α,8α)-8-Hydroxy-8-methylsulfanylmethyl-2-[4-(2,2,2-trifluoro-ethoxy)-phenyl]-2-aza-spiro[4.5]decan-1-one]"
10,20 nM,"CCCSC[C@]1(O)CC[C@]2(CCN(c3ccc(OCC(F)(F)F)cc3)C2=O)CC1 [Example 294, (5α,8α)-8-Hydroxy-8-propylsulfanylmethyl-2-[4-(2,2,2-trifluoro-ethoxy)-phenyl]-2-aza-spiro[4.5]decan-1-one]"
11,590 nM,"C[C@H](Oc1ccc(N2CC[C@]3(CC[C@](O)(COCC(F)F)CC3)C2=O)cc1)C(F)(F)F [Example 298, (5α,8β)-8-(2,2-Difluoro-ethoxymethyl)-8-hydroxy-2-[4-((S)-2,2,2-trifluoro-1-methyl-ethoxy)-phenyl]-2-aza-spiro[4.5]decan-1-one]"
12,10 nM,"C[C@H](Oc1ccc(N2CC[C@]3(CC[C@@](O)(COCC(F)F)CC3)C2=O)cc1)C(F)(F)F [Example 299, (5α,8α)-8-(2,2-Difluoro-ethoxymethyl)-8-hydroxy-2-[4-((S)-2,2,2-trifluoro-1-methyl-ethoxy)-phenyl]-2-aza-spiro[4.5]decan-1-one]"
13,300 nM,"C[C@@H](Oc1ccc(N2CC[C@]3(CC[C@](O)(COCC(F)F)CC3)C2=O)cc1)C(F)(F)F [Example 300, (5α,8β)-8-(2,2-Difluoro-ethoxymethyl)-8-hydroxy-2-[4-((R)-2,2,2-trifluoro-1-methyl-ethoxy)-phenyl]-2-aza-spiro[4.5]decan-1-one]"
14,10 nM,"C[C@@H](Oc1ccc(N2CC[C@]3(CC[C@@](O)(COCC(F)F)CC3)C2=O)cc1)C(F)(F)F [Example 301, (5α,8α)-8-(2,2-Difluoro-ethoxymethyl)-8-hydroxy-2-[4-((R)-2,2,2-trifluoro-1-methyl-ethoxy)-phenyl]-2-aza-spiro[4.5]decan-1-one]"
